Results: patent publication US9845471B2, “Compositions and methods for treating pancreatic cancer” (Fred Hutchinson Cancer Research Center, priority 2013, dated 2017)

Assays:
Runx3 [1] = assay: Runx3 immunoblot after histone deacetylase inhibitor treatment; assay type: cell-based, murine; settings: KPD carcinoma cells; TSA at 0, 10, or 40 μM; 48 hours of treatment
Method: To directly test of this potential involvement of Hdac5 in the post-translational control mechanism of Runx3, a histone deacetylase inhibitor was used to determine whether Runx3 levels increased when deacetylation of Runx3 by Hdac5 was minimized or abrogated (i.e., whether the acetylation level of Runx3 does in fact affect physiologic degradation). Briefly, cells (4×10^5) were plated in 60 cc dishes and trichostatin A (TSA) (Tocris Biosciences, MO, USA), an Hdac5 inhibitor, was added at 0, 10, or 40 μM at 24 hours. Total RNA or whole cell lysates were prepared as described herein after 48 hours of treatment, and the latter resolved on 4-12% Bis-Tris gels, transferred to PVDF and probed with Runx3 antibody.

[2] = tested on: KP primary carcinoma cells; assay: Scratch wound migration assay, KP; assay type: cell-based, murine
Method: (§1) In addition to examining EMT, carcinoma cells were examined for their ability to migrate. For migration assays, cells were first incubated in the presence or absence of TGFβ (5 ng/ml) for 60 hours to achieve growth arrest (in order to separate out effects of proliferation rather than migration; see Izeradjene et al., 2007), then serum starved for 8 hours. Confluent cultures were scratched with a 20 μl pipette tip to generate a wound in three horizontal stripes per well; each experimental condition was performed in triplicate wells. All experiments were conducted in triplicate at least 3 independent times on at least 2 different cell lines from each genetic background. A minimum of six points across each wound were assessed independently by two investigators at the indicated time intervals for the presence of cells within the expanse. Representative photographs were taken from a minimum of 6-8 separate high power fields. […]
(§2) Dpc4 expression was knocked down using a short hairpin RNA (shRNA) sequence (GAUUAACACUGCAGAGUAA, SEQ ID NO.: 19) targeting murine DPC4 procured in a pGIPZ vector (Open Biosystems). […] DPC4 transcript levels in murine cell lines were analyzed by qRT-PCR using the Taq-man assay per the manufacturer's recommendations (Applied Biosystems, CA, USA) with GAPHD as an internal control.

[3] = tested on: KPD primary carcinoma cells; assay: Scratch wound migration assay, KPD; assay type: cell-based, murine
Method: as §1, §2

KPD cells [4] = assay: Cell proliferation assay; assay type: cell-based, murine; settings: TGFβ 5 ng/ml
Method: For immunocytochemistry, the primary antibody used was Ki-67 (1:25, Dako, Calif., USA), which is a marker of proliferating cells. For cell proliferation assays, equal numbers of murine or human cells (30,000) were plated in triplicate for each cell line and incubated in the presence or absence of TGFβ (5 ng/ml, R&D Systems, USA). Cells were counted manually at 24 hour intervals. Data points represent the mean±SEM of triplicate determinations from at least 3 independent experiments. All experiments were conducted in triplicate at least 3 independent times on at least 2 different cell lines from each genetic background. Representative photographs were taken from a minimum of 6-8 separate high power fields. For all assays, media was replaced every 24 hours with or without TGFβ and photographed every 24 hours.

MiaPaCa-2 cells = assay: Scratch wound migration assay, MiaPaCa-2; assay type: cell-based, human; settings: TGFβ
Method: (§3) In addition to examining EMT, carcinoma cells were examined for their ability to migrate. For migration assays, cells were first incubated in the presence or absence of TGFβ (5 ng/ml) for 60 hours to achieve growth arrest (in order to separate out effects of proliferation rather than migration; see Izeradjene et al., 2007), then serum starved for 8 hours. Confluent cultures were scratched with a 20 μl pipette tip to generate a wound in three horizontal stripes per well; each experimental condition was performed in triplicate wells. All experiments were conducted in triplicate at least 3 independent times on at least 2 different cell lines from each genetic background. A minimum of six points across each wound were assessed independently by two investigators at the indicated time intervals for the presence of cells within the expanse. Representative photographs were taken from a minimum of 6-8 separate high power fields. For all assays, media was replaced every 24 hours with or without TGFβ and photographed every 24 hours.
(§4) As an initial analysis, the human pancreas cancer cell lines were tested in the scratch wound migration assay described herein. The basal levels of RUNX3 in these human PDA cell lines correlated with their migratory potential, as MiaPaCa-2 cells migrated far less well than CFPAC-1 and Panc-1 cells (FIG. 9B). […]

[5] = tested on: Runx3 complexes with Smad2 and Smad4; assay: Smad2 immunoprecipitation of Runx3 complexes, KPD; assay type: cell-based, murine; settings: KPD cells, incubated with TGFβ prior to lysis
Method: (§5) To examine whether the transcriptional activity of Runx3 was exercised in complex with Smad4/Dpc4, immunoprecipitation assays were performed. Briefly, cells were lysed by sonication in 20 mM HEPES (pH 7.5), 400 mM KCl, 5% Glycerol, 5 mM EDTA, 0.4% Np40, supplemented with 1×protease inhibitor (Sigma, MO, USA), phosphotase inhibitor cocktails I and II (Sigma, MO, USA), and the lysates cleared by centrifugation. Extracts were diluted to 20 mM HEPES (pH 7.8), 50 mM KCl, 5% Glycerol, 2.5 mM MgCl2, 0.05% NP40 and incubated with Smad2 antibody (2.5 μg/ml from AbCam, Cambridge Mass., USA) and Protein A-Sepharose beads for 4 hours at 4° C. Beads were washed and co-purified proteins liberated in boiling Laemmli buffer and analyzed by immunoblot with the appropriate primary antibody. ExactaCruz secondary antibodies (Santa Cruz biotechnology) were used to reduce background from IgG.

Panc-1 cells [6] = assay: Scratch wound migration assay, Panc-1; assay type: cell-based, human
Method: as §3, §4

KPD PDA cells = assay: EMT immunofluorescence (actin stress fibers, E-cadherin), KPD; assay type: cell-based, murine
Method: First, KPD pancreas cancer cells were probed by immunofluorescence for their ability to undergo epithelial-to-mesenchymal transition (EMT), a program of morphological and molecular changes implicated in the metastatic phenotype. Briefly, cells were grown on glass cover slips and treated for 72 hours in the presence or absence of TGFβ (5 ng/ml); media was replaced every 24 hours. For E-cadherin immunofluorescence, cells were fixed in ice cold methanol:acetone (1:1) for 15 minutes. For F-actin IF, cells were fixed in 4% paraformaldehyde for 30 minutes at RT followed by brief rinse in 0.15M glycine to quench the PFA. After fixation, the cells were washed with PBS and blocked for 1 hour at RT with 2% fatty acid-free BSA/2.5% goat serum. Cells were incubated with E-cadherin primary antibody (1:200, BD Biosciences) or Alexafluor488 F-actin (1:1000) for 1 hour at RT. Alexafluor 488 secondary antibody was used to visualize E-cadherin antibody. Cells were counterstained with DAPI and the slips mounted with Prolong Gold Anti-fade (Invitrogen, CA, USA). Images were acquired using a Nikon Eclipse 80i microscope with NIS Elements Software (Nikon, v3.1).

[7] = tested on: Runx3 complexes with Smad2 and Smad4; assay: Smad2 immunoprecipitation of Runx3 complexes, KP; assay type: cell-based, murine; settings: KP cells, incubated with TGFβ prior to lysis
Method: as §5

KP PDA cells = assay: EMT immunofluorescence (actin stress fibers, E-cadherin), KP; assay type: cell-based, murine
CFPAC-1 cells = assay: Scratch wound migration assay, CFPAC-1; assay type: cell-based, human; settings: CFPAC1 cells
Method: as §3, §4

KPD cells [8] = assay: Tail vein pulmonary metastasis assay in nude mice, KPD cells; assay type: in vivo, nude mice (Athymic NCr-nu/nu); settings: KPD cells with complete knockdown of Dpc4, tail vein injection
Method: (§6) Purified KP and KPD carcinoma cells were also injected into the circulation of immunocompromised mice and scored for their ability to form pulmonary metastases. Briefly, murine cells were studied in a classical tail vein metastasis assay in nude mice (Athymic NCr-nu/nu). At least 3 animals were injected (1×10^5 or 1×10^6 cells/injection, depending on the experiment) for each independently derived cell line and all experiments were performed at least twice. […] Metastatic disease burdens were assessed as a ratio of cross-sectional area occupied by tumor to whole lung area using ImageJ software (NIH).
as §2, with “Biosystems). A control sequence (scrambled, scr) was used as a negative control. High-titer lentivirus was made and PDA cells were infected and selected for stable expression of the DPC4-specific shRNA. Knockdown was confirmed by qRT-PCR.” for “Biosystems).”

Runx3 [9] = assay: Runx3 immunoblot after targeted depletion of Smad4; assay type: cell-based, murine; settings: KPD cells; converse of the increase seen with Smad4 over-expression
Method: For immunoblot analysis, whole cell lysates were prepared using 1×RIPA buffer (Millipore, CA, USA) supplemented with 1×protease inhibitor (Sigma, MO, USA) and phosphotase inhibitor cocktails I and II (Sigma, MO, USA). For immunoblot experiments, 20 μg (murine) or 30 μg (human) whole cell protein lysate were separated on a 4-12% Bis-tris gel system (Invitrogen, CA, USA) and transferred to PVDF membrane (Millipore, CA, USA). Primary antibodies used were Dpc4, p16, p19, Actin (all at 1:2000, Santa Cruz, Calif., USA), and p53 (1:1000, Vector Lab, CA, USA).
(§7) Dpc4 expression was knocked down using a short hairpin RNA (shRNA) sequence (GAUUAACACUGCAGAGUAA, SEQ ID NO.: 19) targeting murine DPC4 procured in a pGIPZ vector (Open Biosystems). A control sequence (scrambled, scr) was used as a negative control. High-titer lentivirus was made and PDA cells were infected and selected for stable expression of the DPC4-specific shRNA. Knockdown was confirmed by qRT-PCR. Briefly, total RNA was reverse transcribed using the high capacity cDNA synthesis kit (Applied Biosystems, CA, USA) and qRT-PCR performed using SYBER green supermix (Bio-Rad, VA, USA) on a CFX-96 thermal cycler. […] DPC4 transcript levels in murine cell lines were analyzed by qRT-PCR using the Taq-man assay per the manufacturer's recommendations (Applied Biosystems, CA, USA) with GAPHD as an internal control.

KP cells = assay: Tail vein pulmonary metastasis assay in nude mice, KP cells; assay type: in vivo, nude mice (Athymic NCr-nu/nu); settings: KP cells with Dpc4 extinguished, tail vein injection
Method: as §6
as §7, with “qRT-PCR.” for “qRT-PCR. Briefly, total RNA was reverse transcribed using the high capacity cDNA synthesis kit (Applied Biosystems, CA, USA) and qRT-PCR performed using SYBER green supermix (Bio-Rad, VA, USA) on a CFX-96 thermal cycler.”

COL6A1 = COL6A1 expression by qRT-PCR; assay type: cell-based, human; settings: shRUNX3 transfected Panc-1 cells vs scrambled
Method: (§8) Human RUNX3 was cloned into pBABE hygromycin vector and stable RUNX3 expressing HEK293T cells were prepared using a similar protocol to that used to make the murine version. Also, shRNA sequences targeting human RUNX3 to knock down expression were procured in pGIPZ vectors (Open Biosystems). High-titer lentivirus was made and PDA cells were infected and selected for stable expression of the […] shRNA (SEQ ID NO.: 20, CGGCAGAAGCUGGAGGACC). Knockdown was confirmed by qRT-PCR.
Transcript levels in Runx3-overexpressing carcinoma cells were determined using qRT-PCR as described herein. The Spp1 mouse forward and reverse primers used were SEQ ID NO.:5 ([…]) and SEQ ID NO.:6 ([…]), respectively; the Col6A1 mouse forward and reverse primers were SEQ ID NO.:7 (CTGCTGCTACAAGCCTGCT) and SEQ ID NO.:8 (CTGCTGCTACAAGCCTGCT), respectively; and the COL6A1 human forward and reverse primers were SEQ ID NO.:9 ([…]) and SEQ ID NO.:10 ([…]), respectively.

Panc-1 cells [10] = assay: Pulmonary metastasis assay in NOD/SCID mice; assay type: in vivo
Method: as §6, §8
To determine whether overexpression of RUNX3 in human PDA cells also promotes metastasis, pulmonary metastasis assays were performed using NOD/SCID mice.

CC(/C=C/C(=O)NO)=C\[C@@H](C)C(=O)c1ccc(N(C)C)cc1 [TSA, trichostatin A]
levels of Runx3 (immunoblot) (Runx3 [1]): raise levels of Runx3 to approximately those found in KP cells

TGFβ
migration ([2]; TGFβ 5 ng/ml): stimulated | migration ([3]; TGFβ 5 ng/ml): did not respond in kind | growth arrest (proliferation) (KPD cells [4]): only partially growth-arrested | migration (MiaPaCa-2 cells): modestly inhibited the migration | Runx3/Smad2/Smad4 complex formation [5]: inhibit it | migration (Panc-1 cells [6]; TGFβ): promoted or left unaffected | EMT (actin stress fibers, surface E-cadherin) (KPD PDA cells; KPD PDA cells, TGFβ 5 ng/ml, 72 hours): EMT is essentially intact | Runx3/Smad2/Smad4 complex formation [7]: favor complex formation | EMT (KP PDA cells; TGFβ 5 ng/ml, 72 hours): readily underwent TGFβ-induced EMT | migration (CFPAC-1 cells; TGFβ): promoted or left unaffected

shDpc4: short hairpin RNA (GAUUAACACUGCAGAGUAA, SEQ ID NO.: 19) targeting murine DPC4 in a pGIPZ vector
migration ([2]; Dpc4 depleted by shRNA): migration increased slightly | basal migratory behavior ([3]; complete ablation of Dpc4 expression by shRNA): increased their basal migratory behavior modestly | metastatic potential (KPD cells [8]): enhanced their metastatic potential | Runx3 levels (immunoblot) (Runx3 [9]): had the converse effect | EMT in response to TGFβ (KPD PDA cells; KPD carcinoma cells, complete loss of Dpc4 expression by shRNA): some morphological features of EMT in response to TGFβ also persisted | EMT in response to TGFβ (KP PDA cells; late ablation of Dpc4 by shRNA): did not completely prevent EMT | metastatic potential (KP cells): did not diminish their already considerable metastatic potential

shRUNX3: shRNA targeting human RUNX3 (SEQ ID NO.: 20, CGGCAGAAGCUGGAGGACC) in pGIPZ vector, delivered by lentivirus
migration (Panc-1 cells [6]; stable RUNX3-specific shRNA): inhibited their migration | COL6A1 transcript levels (COL6A1): reduces COL6A1 transcript levels | liver weights (Panc-1 cells [10]; NOD/SCID mice injected with RUNX3 knockdown Panc-1 cells, n=3): 0.53 ± 0.06 g | ability to seed and support secondary metastases to the liver (Panc-1 cells [10]; RUNX3-depleted Panc-1 cells in NOD/SCID mice): considerably decreased | number of lung metastases (Panc-1 cells [10]; RUNX3-knockdown vs control Panc-1 cells in NOD/SCID mice): comparable number of lung metastases | migration (CFPAC-1 cells; stable RUNX3-specific shRNA): inhibited their migration
